We go through 26 molecules from patent publication US8901133B2, “Heterocyclic compounds and uses thereof” (Infinity Pharmaceuticals, Inc., priority 2010, dated 2014).

Structures are written as SMILES.

One test has as its target T1, PI3Kγ (Homo sapiens, UniProt P48736).
T1 construct: purchased Millipore Corporation 14-558-K
The test can be described thus: PI3 Kinase HTRF assay, PI3Kγ. It counts as biochemical. To be noted: 10 μM PIP2, 10 μM ATP; read-out: PI3K γ IC50. The source says:
(§1) A PI3 Kinase HTRF® assay kit (cat No. 33-016) purchased from Millipore Corporation was used to screen compounds disclosed herein. This assay used specific, high affinity binding of the GRP1 pleckstrin homology (PH) domain to PIP3, the product of a Class 1A or 1B PI3 Kinase acting on its physiological substrate PIP2. During the detection phase of the assay, a complex was generated between the GST-tagged PH domain and biotinylated short chain PIP3. The biotinylated PIP3 and the GST-tagged PH domain recruited fluorophores (Streptavidin-Allophycocyanin and Europium-labeled anti-GST respectively) to form the fluorescence resonance energy transfer (FRET) architecture, generating a stable time-resolved FRET signal. The FRET complex was disrupted in a competitive manner by non-biotinylated PIP3, a product formed in the PI3 Kinase assay.
(§2) PI3 Kinase α, β, γ and δ activity was assayed using the PI3 Kinase HTRF® assay kit (catalogue No. 33-016) purchased from Millipore Corporation. Purified recombinant PI3Kα (catalogue No. 14-602-K), PI3Kβ (catalogue No. 14-603-K), PI3Kγ (catalogue No. 14-558-K) and PI3Kδ (catalogue No. 14-604-K) were obtained from Millipore Corporation. Purified recombinant PI3K enzyme was used to catalyze the phosphorylation of phosphatidylinositol 4,5-bisphosphate (PIP2 at 10 μM) to phosphatidylinositol 3,4,5-trisphosphate (PIP3) in the presence of 10 μM ATP. The assay was carried out in 384-well format and detected using a Perkin Elmer En Vision Xcite Multilabel Reader. Emission ratios were converted into percent inhibitions and imported into GraphPad Prism software. The concentration necessary to achieve inhibition of enzyme activity by 50% (IC50) was calculated using concentrations ranging from 20 μM to 0.1 nM (12-point curve). IC50 values were determined using a nonlinear regression model available in GraphPad Prism 5. […]

Another test concerns Balb/c splenic B cells. The test can be described thus: B cell activation and proliferation assay (Alamar Blue). It counts as cell-based. The conditions noted are these: Mus musculus, read-out: B cell prolif. IC50. On the procedure: The ability of one or more subject compounds to inhibit B cell activation and proliferation is determined according to standard procedures known in the art. For example, an in vitro cellular proliferation assay is established that measures the metabolic activity of live cells. The assay is performed in a 96 well microtiter plate using Alamar Blue reduction. Balb/c splenic B cells are purified over a Ficoll-Paque™ PLUS gradient followed by magnetic cell separation using a MACS B cell Isolation Kit (Miletenyi). Cells are plated in 90 ul at 50,000 cells/well in B Cell Media (RPMI+10% FBS+Penn/Strep+50 uM bME+5 mM HEPES). A compound disclosed herein is diluted in B Cell Media and added in a 10 μl volume. Plates are incubated for 30 min at 37 C and 5% CO2 (0.2% DMSO final concentration). A 50 μl B cell stimulation cocktail is then added containing either 10 ug/ml LPS or 5 ug/ml F(ab′)2 Donkey anti-mouse IgM plus 2 ng/ml recombinant mouse IL4 in B Cell Media. Plates are incubated for 72 hours at 37° C. and 5% CO2. A volume of 15 μl of Alamar Blue reagent is added to each well and plates are incubated for 5 hours at 37 C and 5% CO2. Alamar Blue fluoresce is read at 560Ex/590Em, and IC50 or EC50 values are calculated using GraphPad Prism 5.
Background: Alamar Blue is a resazurin reagent that responds to reducing activity.

For the next test, the target named is T2, PI3Kβ (Homo sapiens, UniProt P42338).
T2 construct: purchased Millipore Corporation 14-603-K
In words: PI3 Kinase HTRF assay, PI3Kβ. It counts as biochemical. To be noted: 10 μM PIP2, 10 μM ATP; read-out: PI3K β IC50.
Source text: as §1, §2
(In general: Time-resolved FRET reads energy transfer from a long-lived donor to a nearby acceptor.)

A further test deals with T3, PI3Kδ (Homo sapiens, UniProt O00329).
T3 construct: purchased Millipore Corporation 14-604-K
The test can be described thus: PI3 Kinase HTRF assay, PI3Kδ. It counts as biochemical. To be noted: 10 μM PIP2, 10 μM ATP; read-out: PI3K δ IC50.
Source text: as §1, §2

A further test addresses T4, PI3Kα (Homo sapiens, UniProt P42336).
T4 construct: purchased Millipore Corporation 14-602-K
The test can be described thus: PI3 Kinase HTRF assay, PI3Kα. The conditions noted are these: 10 μM PIP2, 10 μM ATP; read-out: PI3K α IC50. It counts as biochemical.
Source text: as §1, §2

T4 sequence (P42336 whole entry): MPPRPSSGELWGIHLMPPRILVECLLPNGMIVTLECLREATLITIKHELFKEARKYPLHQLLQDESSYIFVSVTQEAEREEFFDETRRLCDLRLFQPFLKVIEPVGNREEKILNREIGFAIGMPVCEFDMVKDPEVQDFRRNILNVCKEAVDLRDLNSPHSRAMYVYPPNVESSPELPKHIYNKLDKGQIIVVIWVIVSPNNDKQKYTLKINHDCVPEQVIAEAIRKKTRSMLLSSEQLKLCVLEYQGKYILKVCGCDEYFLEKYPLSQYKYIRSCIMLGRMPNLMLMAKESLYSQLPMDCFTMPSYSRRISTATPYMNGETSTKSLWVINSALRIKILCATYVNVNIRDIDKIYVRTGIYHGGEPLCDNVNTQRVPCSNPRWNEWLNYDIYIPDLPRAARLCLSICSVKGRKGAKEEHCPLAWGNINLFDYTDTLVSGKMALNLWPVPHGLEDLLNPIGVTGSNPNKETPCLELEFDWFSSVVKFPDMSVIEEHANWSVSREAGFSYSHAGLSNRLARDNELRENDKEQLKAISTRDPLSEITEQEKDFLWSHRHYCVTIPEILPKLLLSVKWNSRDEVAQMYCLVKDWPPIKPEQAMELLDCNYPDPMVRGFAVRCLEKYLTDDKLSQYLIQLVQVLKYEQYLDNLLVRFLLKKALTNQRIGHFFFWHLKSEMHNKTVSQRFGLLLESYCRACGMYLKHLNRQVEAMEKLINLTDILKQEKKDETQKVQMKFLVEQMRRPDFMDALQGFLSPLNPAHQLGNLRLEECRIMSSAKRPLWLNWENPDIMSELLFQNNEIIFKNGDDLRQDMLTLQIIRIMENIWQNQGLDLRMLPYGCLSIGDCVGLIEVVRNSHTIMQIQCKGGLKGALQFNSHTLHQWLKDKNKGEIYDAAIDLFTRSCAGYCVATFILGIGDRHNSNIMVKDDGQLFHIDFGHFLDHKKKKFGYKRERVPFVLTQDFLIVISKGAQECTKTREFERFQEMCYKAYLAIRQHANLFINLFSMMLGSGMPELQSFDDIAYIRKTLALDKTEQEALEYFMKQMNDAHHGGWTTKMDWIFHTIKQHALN
T4 sequence (P27986 whole entry partner): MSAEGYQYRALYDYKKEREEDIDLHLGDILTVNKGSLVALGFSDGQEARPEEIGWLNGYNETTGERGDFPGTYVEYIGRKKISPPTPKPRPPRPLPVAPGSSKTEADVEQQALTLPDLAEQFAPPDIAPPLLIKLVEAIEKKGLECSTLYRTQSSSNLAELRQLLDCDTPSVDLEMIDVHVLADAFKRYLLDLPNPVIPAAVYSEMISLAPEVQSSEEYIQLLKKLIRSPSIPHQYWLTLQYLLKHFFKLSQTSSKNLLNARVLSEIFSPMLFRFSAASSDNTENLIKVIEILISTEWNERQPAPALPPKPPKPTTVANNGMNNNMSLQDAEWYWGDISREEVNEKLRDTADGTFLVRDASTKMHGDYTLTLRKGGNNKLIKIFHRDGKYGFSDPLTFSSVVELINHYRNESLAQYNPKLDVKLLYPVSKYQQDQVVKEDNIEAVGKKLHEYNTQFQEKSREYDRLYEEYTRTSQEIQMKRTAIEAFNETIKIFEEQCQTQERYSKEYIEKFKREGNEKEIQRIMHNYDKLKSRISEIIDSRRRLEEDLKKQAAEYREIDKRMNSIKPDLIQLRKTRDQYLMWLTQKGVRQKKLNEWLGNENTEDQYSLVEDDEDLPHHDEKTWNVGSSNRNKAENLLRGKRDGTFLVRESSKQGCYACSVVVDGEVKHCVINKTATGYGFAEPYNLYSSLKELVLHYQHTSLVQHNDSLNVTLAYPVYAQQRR
T3 sequence (O00329 whole entry): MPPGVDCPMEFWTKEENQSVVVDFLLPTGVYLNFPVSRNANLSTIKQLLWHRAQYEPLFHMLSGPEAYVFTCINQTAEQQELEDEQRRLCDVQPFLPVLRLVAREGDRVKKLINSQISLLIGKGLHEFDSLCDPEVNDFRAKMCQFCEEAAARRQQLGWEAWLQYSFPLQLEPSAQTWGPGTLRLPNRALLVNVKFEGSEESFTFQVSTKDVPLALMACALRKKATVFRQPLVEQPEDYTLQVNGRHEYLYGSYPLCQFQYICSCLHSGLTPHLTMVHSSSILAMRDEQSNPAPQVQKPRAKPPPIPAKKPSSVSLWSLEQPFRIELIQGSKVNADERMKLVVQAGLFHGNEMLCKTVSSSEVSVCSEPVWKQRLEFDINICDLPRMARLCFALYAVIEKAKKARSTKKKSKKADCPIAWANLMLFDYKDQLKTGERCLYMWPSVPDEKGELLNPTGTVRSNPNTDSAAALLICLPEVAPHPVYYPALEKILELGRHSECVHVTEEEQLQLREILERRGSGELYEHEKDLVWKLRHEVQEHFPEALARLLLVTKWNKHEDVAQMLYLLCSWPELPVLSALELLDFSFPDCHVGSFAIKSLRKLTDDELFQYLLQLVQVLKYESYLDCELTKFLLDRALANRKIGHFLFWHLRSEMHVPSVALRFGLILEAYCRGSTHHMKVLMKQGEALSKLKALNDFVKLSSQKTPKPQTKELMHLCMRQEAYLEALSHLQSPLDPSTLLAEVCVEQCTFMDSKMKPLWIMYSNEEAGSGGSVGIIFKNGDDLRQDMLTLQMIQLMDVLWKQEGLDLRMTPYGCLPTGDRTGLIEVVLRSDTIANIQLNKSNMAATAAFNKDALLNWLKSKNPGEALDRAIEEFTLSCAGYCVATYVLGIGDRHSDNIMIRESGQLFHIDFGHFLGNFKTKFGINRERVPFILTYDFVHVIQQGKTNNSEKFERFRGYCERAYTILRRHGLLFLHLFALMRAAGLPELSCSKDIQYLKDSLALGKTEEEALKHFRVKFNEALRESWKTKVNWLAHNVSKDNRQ
T3 sequence (P27986 whole entry partner): as the sequence (P27986 whole entry partner) above
T2 sequence (P42338 whole entry): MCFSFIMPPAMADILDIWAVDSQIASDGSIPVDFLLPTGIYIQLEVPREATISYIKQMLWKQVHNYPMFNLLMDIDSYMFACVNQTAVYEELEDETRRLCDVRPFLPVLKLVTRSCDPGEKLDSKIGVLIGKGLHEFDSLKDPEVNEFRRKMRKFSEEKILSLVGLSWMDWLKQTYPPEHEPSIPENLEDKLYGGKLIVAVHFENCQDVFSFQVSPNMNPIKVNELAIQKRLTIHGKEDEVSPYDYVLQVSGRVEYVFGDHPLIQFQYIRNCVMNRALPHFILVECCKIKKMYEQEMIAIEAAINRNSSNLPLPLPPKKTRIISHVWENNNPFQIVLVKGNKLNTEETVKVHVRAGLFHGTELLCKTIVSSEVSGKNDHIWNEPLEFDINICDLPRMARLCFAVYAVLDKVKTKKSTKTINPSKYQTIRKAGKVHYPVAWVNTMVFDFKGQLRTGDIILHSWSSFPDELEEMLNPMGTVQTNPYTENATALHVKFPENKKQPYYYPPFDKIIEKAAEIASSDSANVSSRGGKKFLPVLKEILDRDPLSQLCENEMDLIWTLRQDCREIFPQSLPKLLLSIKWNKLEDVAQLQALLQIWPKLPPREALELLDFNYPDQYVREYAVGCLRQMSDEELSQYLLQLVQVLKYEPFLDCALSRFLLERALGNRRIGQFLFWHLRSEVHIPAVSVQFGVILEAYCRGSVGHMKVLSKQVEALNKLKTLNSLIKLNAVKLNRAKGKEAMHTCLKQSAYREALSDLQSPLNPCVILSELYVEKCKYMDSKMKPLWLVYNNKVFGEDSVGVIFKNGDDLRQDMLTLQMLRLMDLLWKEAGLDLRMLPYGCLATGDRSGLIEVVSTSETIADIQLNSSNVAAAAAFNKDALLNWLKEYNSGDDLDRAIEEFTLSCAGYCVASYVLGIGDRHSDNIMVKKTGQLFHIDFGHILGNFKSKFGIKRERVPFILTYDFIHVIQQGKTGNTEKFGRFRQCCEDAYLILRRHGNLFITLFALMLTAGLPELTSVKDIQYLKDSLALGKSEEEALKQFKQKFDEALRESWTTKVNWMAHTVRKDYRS
T2 sequence (P27986 whole entry partner): as the sequence (P27986 whole entry partner) above
T1 sequence (P48736 whole entry): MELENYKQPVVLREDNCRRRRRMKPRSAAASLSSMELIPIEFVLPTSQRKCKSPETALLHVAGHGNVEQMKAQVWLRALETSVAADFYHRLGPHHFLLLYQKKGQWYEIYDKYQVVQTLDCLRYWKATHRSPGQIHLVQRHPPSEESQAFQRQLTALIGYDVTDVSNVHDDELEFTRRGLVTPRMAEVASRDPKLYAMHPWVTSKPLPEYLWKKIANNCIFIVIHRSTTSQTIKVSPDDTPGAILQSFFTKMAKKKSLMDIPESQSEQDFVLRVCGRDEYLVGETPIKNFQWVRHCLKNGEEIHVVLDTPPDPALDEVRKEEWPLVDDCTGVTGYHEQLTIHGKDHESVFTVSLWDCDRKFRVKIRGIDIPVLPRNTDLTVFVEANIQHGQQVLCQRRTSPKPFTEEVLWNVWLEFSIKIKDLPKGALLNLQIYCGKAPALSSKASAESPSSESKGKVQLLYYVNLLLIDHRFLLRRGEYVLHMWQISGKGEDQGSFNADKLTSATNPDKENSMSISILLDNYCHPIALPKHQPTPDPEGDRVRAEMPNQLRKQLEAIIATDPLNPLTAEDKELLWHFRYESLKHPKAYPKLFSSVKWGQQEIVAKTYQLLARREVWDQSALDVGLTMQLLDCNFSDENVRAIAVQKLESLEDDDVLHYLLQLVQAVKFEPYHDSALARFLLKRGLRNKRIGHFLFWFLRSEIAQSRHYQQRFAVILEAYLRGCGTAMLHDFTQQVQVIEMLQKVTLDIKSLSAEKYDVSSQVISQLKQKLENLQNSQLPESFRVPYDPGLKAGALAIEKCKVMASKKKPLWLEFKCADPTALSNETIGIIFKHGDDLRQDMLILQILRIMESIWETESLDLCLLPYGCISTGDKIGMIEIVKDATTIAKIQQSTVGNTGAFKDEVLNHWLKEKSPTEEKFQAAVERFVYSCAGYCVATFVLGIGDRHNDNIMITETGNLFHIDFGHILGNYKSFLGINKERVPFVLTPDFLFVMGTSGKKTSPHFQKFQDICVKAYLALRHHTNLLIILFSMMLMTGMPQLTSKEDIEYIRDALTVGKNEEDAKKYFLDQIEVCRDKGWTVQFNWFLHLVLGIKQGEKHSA

`C[C@H](Nc1ncnc2[nH]cnc12)c1cc2cccc(Cl)c2c(CCN2CCOCC2)n1` [Compound 4]: the IC50 on PI3Kγ is under 10 µM; in the test with Balb/c splenic B cells it was under 0.1 µM; at PI3Kβ, under 10 µM; at PI3Kδ it was under 0.1 µM; at PI3Kα, under 10 µM.

As for `C[C@H](Nc1ncnc2[nH]cnc12)c1cc2cccc(Cl)c2c(CN2CCOCC2)n1` [Compound 7], the half-inhibitory concentration (IC50) at PI3Kγ is under 10 µM; in the test on Balb/c splenic B cells, under 0.1 µM; on PI3Kβ, over 10 µM; on PI3Kδ, under 0.1 µM; on PI3Kα, over 10 µM.

On to `C[C@H](Nc1ncnc2[nH]cnc12)c1cc2cccc(Cl)c2c(CN2CCC(F)(F)C2)n1` [Compound 8], for which the IC50 at PI3Kγ was under 1 µM; in the test with Balb/c splenic B cells, under 1 µM; on PI3Kβ, under 10 µM; at PI3Kδ, under 1 µM; at PI3Kα it was under 10 µM.

With `C[C@H](Nc1ncnc2[nH]cnc12)c1cc2cccc(Cl)c2c(C(=O)N2CCOCC2)n1` [Compound 13], the IC50 at PI3Kγ is under 0.1 µM; in the test with Balb/c splenic B cells, under 0.1 µM; on PI3Kβ it was under 10 µM; at PI3Kδ it was under 0.1 µM; on PI3Kα, over 10 µM.

`C[C@H](Nc1ncnc2[nH]cnc12)c1cc2cccc(Cl)c2c(C(=O)N2CCCC2)n1` [Compound 14]: the 50% inhibitory concentration (IC50) at PI3Kγ is under 10 µM; in the test with Balb/c splenic B cells, under 0.1 µM; at PI3Kβ, over 10 µM; on PI3Kδ it was under 0.1 µM; at PI3Kα it was over 10 µM.

For `C[C@H](Nc1ncnc2[nH]cnc12)c1cc2cccc(Cl)c2c(C(=O)N2CCN(C)CC2)n1` [Compound 15], the IC50 at PI3Kγ is under 10 µM; with Balb/c splenic B cells, under 0.1 µM; on PI3Kβ, over 10 µM; at PI3Kδ, under 0.1 µM; on PI3Kα, under 10 µM.

As to `C[C@H](Nc1ncnc2[nH]cnc12)c1cc2cccc(Cl)c2c(C(=O)N2C3CCC2COC3)n1` [Compound 16], the IC50 was under 10 µM at PI3Kγ; under 0.1 µM with Balb/c splenic B cells; under 10 µM on PI3Kβ; under 0.1 µM at PI3Kδ; over 10 µM at PI3Kα.

Take `C[C@@H]1CN(C(=O)c2nc([C@H](C)Nc3ncnc4[nH]cnc34)cc3cccc(Cl)c23)CCN1` [Compound 17]: the IC50 is over 10 µM on PI3Kγ; under 1 µM in the test on Balb/c splenic B cells; under 10 µM on PI3Kβ; under 0.1 µM on PI3Kδ; over 10 µM at PI3Kα.

In the case of `C[C@H](Nc1ncnc2[nH]cnc12)c1cc2cccc(Cl)c2c(C(=O)N2CCN[C@@H](C)C2)n1` [Compound 18], the concentration for half-maximal inhibition (IC50) at PI3Kγ is under 10 µM; in the test with Balb/c splenic B cells, under 1 µM; on PI3Kβ, under 1 µM; on PI3Kδ it was under 0.1 µM; at PI3Kα, under 10 µM.

With `C[C@H](Nc1ncnc2[nH]cnc12)c1cc2cccc(Cl)c2c(C(=O)N2CC3CCC(C2)O3)n1` [Compound 19], the IC50 was under 1 µM on PI3Kγ; under 0.1 µM in the test with Balb/c splenic B cells; under 10 µM at PI3Kβ; under 0.1 µM at PI3Kδ; over 10 µM at PI3Kα.

As to `C[C@H](Nc1ncnc2[nH]cnc12)c1cc2cccc(Cl)c2c(C(=O)N2CCC(F)(F)C2)n1` [Compound 20], the IC50 at PI3Kγ was under 1 µM; with Balb/c splenic B cells, under 0.1 µM; at PI3Kβ, over 10 µM; on PI3Kδ, under 0.1 µM; on PI3Kα, over 10 µM.

On to `C[C@H](Nc1ncnc2[nH]cnc12)c1cc2cccc(Cl)c2c(C(=O)N2CC(F)(F)C2)n1` [Compound 21], for which the half-inhibitory concentration (IC50) on PI3Kγ is under 1 µM; in the test with Balb/c splenic B cells, under 0.1 µM; at PI3Kβ, over 10 µM; on PI3Kδ it was under 0.1 µM; on PI3Kα, over 10 µM.

Regarding `C[C@H](Nc1ncnc2cccnc12)c1cc2cccc(Cl)c2c(C(=O)N(C)C)n1` [Compound 224], the 50% inhibitory concentration (IC50) is under 1 µM at PI3Kγ, under 10 µM at PI3Kβ, under 10 µM at PI3Kδ and over 10 µM at PI3Kα.

As for `C[C@H](Nc1ncnc2cccnc12)c1cc2cccc(Cl)c2c(C(=O)N2CCNC(=O)C2)n1` [Compound 225], the IC50 is under 1 µM on PI3Kγ, over 10 µM at PI3Kβ, under 1 µM on PI3Kδ and under 10 µM at PI3Kα.

As to `C[C@H](Nc1ncnc2cccnc12)c1cc2cccc(Cl)c2c(C(=O)N2CCC(F)(F)CC2)n1` [Compound 226], the IC50 was under 10 µM at PI3Kγ, over 10 µM at PI3Kβ, under 1 µM on PI3Kδ and over 10 µM on PI3Kα.

On to `C[C@H](Nc1ncnc2scnc12)c1cc2cccc(Cl)c2c(C(=O)N2CCCOCC2)n1` [Compound 227], for which the IC50 at PI3Kγ is under 10 µM; at PI3Kβ, under 10 µM; on PI3Kδ, under 0.1 µM; at PI3Kα, under 10 µM.

Consider `C[C@H](Nc1ncnc2scnc12)c1cc2cccc(Cl)c2c(C(=O)N2CCCCC2)n1` [Compound 229], for which the IC50 is under 10 µM at PI3Kγ, under 1 µM on PI3Kβ, under 0.1 µM at PI3Kδ and under 10 µM at PI3Kα.

Regarding `C[C@H](Nc1ncnc2cccnc12)c1cc2cccc(Cl)c2c(C(=O)N2CCCCC2)n1` [Compound 230], the concentration for half-maximal inhibition (IC50) on PI3Kγ is under 1 µM; on PI3Kβ it was over 10 µM; at PI3Kδ, under 1 µM; on PI3Kα, under 10 µM.

On to `C[C@H](Nc1ncnc2cccnc12)c1cc2cccc(Cl)c2c(C(=O)N2CCCOCC2)n1` [Compound 231], for which the IC50 at PI3Kγ was under 10 µM; at PI3Kβ, over 10 µM; at PI3Kδ, under 1 µM; at PI3Kα, under 10 µM.

For the molecule `C[C@H](Nc1ncnc2cccnc12)c1cc2cccc(Cl)c2c(C(=O)N2CCC(O)CC2)n1` [Compound 233], the IC50 was under 10 µM on PI3Kγ, over 10 µM on PI3Kβ, under 1 µM on PI3Kδ and under 10 µM on PI3Kα.

Regarding `C[C@@H](Nc1ncnc2[nH]cnc12)c1cc2cccc(Cl)c2c(CN2CCCC2)n1` [Compound 239], the IC50 on PI3Kγ, on PI3Kβ, at PI3Kδ and at PI3Kα was over 10 µM throughout.

For `C[C@H](Nc1ncnc2cccnc12)c1cc2cccc(-c3cnn(C)c3)c2c(N2CCN(C)CC2)n1` [Compound 243], the IC50 at PI3Kγ was under 10 µM; at PI3Kβ, under 10 µM; at PI3Kδ it was under 1 µM; on PI3Kα it was over 10 µM.

Take `COCCN(C)C(=O)c1nc([C@H](C)Nc2ncnc3cccnc23)cc2cccc(Cl)c12` [Compound 244]: the half-inhibitory concentration (IC50) at PI3Kγ was under 10 µM; on PI3Kβ it was over 10 µM; on PI3Kδ, under 1 µM; at PI3Kα it was over 10 µM.

Turning to `C[C@H](Nc1ncnc2cccnc12)c1cc2cccc(Cl)c2c(C(=O)N2CCOC[C@H]2C)n1` [Compound 245], the concentration for half-maximal inhibition (IC50) at PI3Kγ was under 1 µM; on PI3Kβ, over 10 µM; at PI3Kδ, under 1 µM; at PI3Kα, over 10 µM.

Regarding `C[C@H](Nc1ncnc2scnc12)c1cc2cccc(Cl)c2c(C(=O)N2CCOC[C@H]2C)n1` [Compound 246], the IC50 at PI3Kγ is under 10 µM; on PI3Kβ, under 10 µM; at PI3Kδ, under 1 µM; at PI3Kα, under 10 µM.

`COCCN(C)C(=O)c1nc([C@H](C)Nc2ncnc3scnc23)cc2cccc(Cl)c12` [Compound 249]: the IC50 at PI3Kγ was under 1 µM; on PI3Kβ, under 10 µM; on PI3Kδ it was under 0.1 µM; on PI3Kα it was under 10 µM.

Broadly, the IC50 is the concentration needed to halve the response being measured.
